Assay results reported in patent US10131652B2, “Pyrimidinyloxy benzene derivatives as herbicides” (E. I. DU PONT DE NEMOURS AND COMPANY, priority 2014, dated 2018).

Legend:
Experiment in all cases: Test F pre-/postemergence plant response
Type in all cases: in vivo
Conditions in all cases: scale 0 to 100
[1] = tested on: arrowleaf sida (Sida rhombifolia)
How it was run: (§1)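 Herbicidal effect judged by eye against controls, scored 0–100 (complete control = 100). Applications: pre-emergence onto seeded silt loam, post-emergence onto 2–18 cm seedlings; greenhouse, 14–21 days.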

corn (Zea mays) = tested on: corn (Zea mays)
How it was run: as §1

[2] = tested on: fall panicum (Panicum dichotomiflorum)
How it was run: as §1

[3] = tested on: field bindweed (Convolvulus arvensis)
How it was run: as §1

[4] = tested on: giant foxtail (Setaria faberii)
How it was run: as §1

[5] = tested on: goosegrass (Eleusine indica)
How it was run: as §1

kochia (Kochia scoparia) = tested on: kochia (Kochia scoparia)
How it was run: as §1

[6] = tested on: palmer pigweed (Amaranthus palmeri)
How it was run: as §1

soybean (Glycine max) = tested on: soybean (Glycine max)
How it was run: as §1

[7] = tested on: surinam grass (Brachiaria decumbens)
How it was run: as §1

[8] = tested on: velvetleaf (Abutilon theophrasti)
How it was run: as §1

FC(F)c1cc(-c2c(Cl)cccc2Oc2ncc(Cl)cn2)no1 [Compound 179]
Plant response rating, Arrowleaf Sida ([1]; 16 g ai/ha Postemergence): 70
Plant response rating, Arrowleaf Sida ([1]; 16 g ai/ha Preemergence): 0
Plant response rating, Arrowleaf Sida ([1]; 31 g ai/ha Postemergence): 80
Plant response rating, Arrowleaf Sida ([1]; 31 g ai/ha Preemergence): 80
Plant response rating, Arrowleaf Sida ([1]; 62 g ai/ha Postemergence): 85
Plant response rating, Arrowleaf Sida ([1]; 62 g ai/ha Preemergence): 80
Plant response rating, Arrowleaf Sida ([1]; 125 g ai/ha Postemergence): 100
Plant response rating, Arrowleaf Sida ([1]; 125 g ai/ha Preemergence): 90
Plant response rating, Corn (corn (Zea mays); 16 g ai/ha Postemergence): 5
Plant response rating, Corn (corn (Zea mays); 16 g ai/ha Preemergence): 0
Plant response rating, Corn (corn (Zea mays); 31 g ai/ha Postemergence): 0
Plant response rating, Corn (corn (Zea mays); 31 g ai/ha Preemergence): 0
Plant response rating, Corn (corn (Zea mays); 62 g ai/ha Postemergence): 10
Plant response rating, Corn (corn (Zea mays); 62 g ai/ha Preemergence): 0
Plant response rating, Corn (corn (Zea mays); 125 g ai/ha Postemergence): 15
Plant response rating, Corn (corn (Zea mays); 125 g ai/ha Preemergence): 40
Plant response rating, Panicum, Fall ([2]; 16 g ai/ha Postemergence): 15
Plant response rating, Panicum, Fall ([2]; 16 g ai/ha Preemergence): 0
Plant response rating, Panicum, Fall ([2]; 31 g ai/ha Postemergence): 10
Plant response rating, Panicum, Fall ([2]; 31 g ai/ha Preemergence): 0
Plant response rating, Panicum, Fall ([2]; 62 g ai/ha Postemergence): 15
Plant response rating, Panicum, Fall ([2]; 125 g ai/ha Postemergence): 10
Plant response rating, Panicum, Fall ([2]; 125 g ai/ha Preemergence): 75
Plant response rating, Panicum, Fall ([2]; Preemergence): 50
Plant response rating, Field Bindweed ([3]; 16 g ai/ha Postemergence): 15
Plant response rating, Field Bindweed ([3]; 16 g ai/ha Preemergence): 0
Plant response rating, Field Bindweed ([3]; 31 g ai/ha Postemergence): 25
Plant response rating, Field Bindweed ([3]; 31 g ai/ha Preemergence): 0
Plant response rating, Field Bindweed ([3]; 62 g ai/ha Postemergence): 35
Plant response rating, Field Bindweed ([3]; 62 g ai/ha Preemergence): 0
Plant response rating, Field Bindweed ([3]; 125 g ai/ha Postemergence): 50
Plant response rating, Field Bindweed ([3]; 125 g ai/ha Preemergence): 0
Plant response rating, Foxtail, Giant ([4]; 16 g ai/ha Preemergence): 0
Plant response rating, Foxtail, Giant ([4]; 31 g ai/ha Preemergence): 0
Plant response rating, Foxtail, Giant ([4]; 62 g ai/ha Preemergence): 30
Plant response rating, Foxtail, Giant ([4]; 125 g ai/ha Preemergence): 20
Plant response rating, Goosegrass ([5]; 16 g ai/ha Preemergence): 0
Plant response rating, Goosegrass ([5]; 31 g ai/ha Preemergence): 0
Plant response rating, Goosegrass ([5]; 125 g ai/ha Preemergence): 0
Plant response rating, Goosegrass ([5]; Preemergence): 0
Plant response rating, Kochia (kochia (Kochia scoparia); 16 g ai/ha Postemergence): 65
Plant response rating, Kochia (kochia (Kochia scoparia); 16 g ai/ha Preemergence): 0
Plant response rating, Kochia (kochia (Kochia scoparia); 31 g ai/ha Postemergence): 75
Plant response rating, Kochia (kochia (Kochia scoparia); 31 g ai/ha Preemergence): 0
Plant response rating, Kochia (kochia (Kochia scoparia); 62 g ai/ha Postemergence): 90
Plant response rating, Kochia (kochia (Kochia scoparia); 125 g ai/ha Postemergence): 95
Plant response rating, Kochia (kochia (Kochia scoparia); 125 g ai/ha Preemergence): 98
Plant response rating, Kochia (kochia (Kochia scoparia); Preemergence): 70
Plant response rating, Pigweed, Palmer ([6]; 16 g ai/ha Postemergence): 70
Plant response rating, Pigweed, Palmer ([6]; 16 g ai/ha Preemergence): 0
Plant response rating, Pigweed, Palmer ([6]; 31 g ai/ha Postemergence): 90
Plant response rating, Pigweed, Palmer ([6]; 31 g ai/ha Preemergence): 0
Plant response rating, Pigweed, Palmer ([6]; 62 g ai/ha Postemergence): 85
Plant response rating, Pigweed, Palmer ([6]; 125 g ai/ha Postemergence): 85
Plant response rating, Pigweed, Palmer ([6]; 125 g ai/ha Preemergence): 65
Plant response rating, Pigweed, Palmer ([6]; Preemergence): 35
Plant response rating, Soybean (soybean (Glycine max); 16 g ai/ha Postemergence): 60
Plant response rating, Soybean (soybean (Glycine max); 16 g ai/ha Preemergence): 0
Plant response rating, Soybean (soybean (Glycine max); 31 g ai/ha Postemergence): 50
Plant response rating, Soybean (soybean (Glycine max); 31 g ai/ha Preemergence): 0
Plant response rating, Soybean (soybean (Glycine max); 62 g ai/ha Postemergence): 75
Plant response rating, Soybean (soybean (Glycine max); 125 g ai/ha Postemergence): 90
Plant response rating, Soybean (soybean (Glycine max); 125 g ai/ha Preemergence): 35
Plant response rating, Soybean (soybean (Glycine max); Preemergence): 0
Plant response rating, Surinam Grass ([7]; 16 g ai/ha Preemergence): 0
Plant response rating, Surinam Grass ([7]; 31 g ai/ha Preemergence): 0
Plant response rating, Surinam Grass ([7]; 125 g ai/ha Preemergence): 0
Plant response rating, Surinam Grass ([7]; Preemergence): 0
Plant response rating, Velvetleaf ([8]; 16 g ai/ha Preemergence): 15
Plant response rating, Velvetleaf ([8]; 31 g ai/ha Preemergence): 65
Plant response rating, Velvetleaf ([8]; 125 g ai/ha Preemergence): 100
Plant response rating, Velvetleaf ([8]; Preemergence): 90
